{"source": "patent USRE39130E1", "about": "(Bayer Cropscience K.K., priority 1986, dated 2006)", "key": {"[1]": {"test_system": "white-backed planthopper (Sogatella furcifera)", "assay": "Test on planthoppers: white-backed planthopper (spray on rice plants, kill ratio)", "assay_type": "in vivo", "conditions": "sprayed rice plants, kill ratio two days later, compared with W-1, W-2 and Q-1", "description": "(§1) In the same way as above, the kill ratio on white-backed planthopper (Sogatella furcifera) and organophosphate-resistant smaller brown planthopper (Laodelphax stiatellus) was calculated."}, "[2]": {"test_system": "organophosphate-resistant smaller brown planthopper (Laodelphax stiatellus)", "assay": "Test on planthoppers: smaller brown planthopper (spray on rice plants, kill ratio)", "assay_type": "in vivo", "conditions": "sprayed rice plants, kill ratio two days later, compared with W-1, W-2 and Q-1", "description": "as §1"}, "[3]": {"test_system": "organophosphate-resistant green rice leafhoppers (Nephotettix cincticeps)", "assay": "Test on organophosphate-resistant green rice leafhoppers (spray on rice plants, kill ratio)", "conditions": "sprayed rice plants, 30 female imagoes, kill ratio two days later; compared with comparison compounds W-1, W-2 and Q 2", "experimental": "Test on organophosphate-resistant green rice leafhoppers (Nephotettix cincticeps)\nPreparation of a test chemical\nSolvent: 3 parts by weight of xylene\nEmulsifier: 1 part by weight of polyoxyethylene alkylphenyl ether\nA water dilution of each of the reactive compounds in a predetermined concentration prepared as above was sprayed onto rice plants, about 10 cm tall, grown in pots having a diameter of 12 cm at a rate of 10 ml per pot. […] The pots were placed in a constant-temperature chamber. Two days later, the number of dead insects was examined, and the kill ratio was calculated."}, "[4]": {"test_system": "green peach aphids (Myzus persicae) having resistance to organophosphate and carbamate chemicals", "assay": "Test on green peach aphids having resistance to organophosphate and carbamate chemicals (spray on eggplant seedlings, kill ratio)", "assay_type": "in vivo", "conditions": "sprayed eggplant seedlings, 28° C., kill ratio twenty-four hours after spraying; compared with W-1, W-2 and Q-2", "description": "Test on green peach aphids (Myzus persicae) having resistance to organophosphate and carbamate chemicals\nBred green peach aphids having resistance to organophsophates and carbamates were inoculated on eggplant (black elongate variety) seedlings, about 20 cm tall, grown in unglazed pots having a diameter of 15 cm at a rate of about 200 per seedling. One day after the inoculation, a water dilution of each of the active compounds in a predetermined concentration prepared as in Example 6 was sprayed in sufficient amounts by means of a spray gun. After the spraying, the pots were left to stand in a greenhouse kept at 28° C. Twenty-four hours after the spraying, the kill ratio was calculated. The above test was carried out through two replicates."}}}
{"smiles": "N#C/N=C1\\NCCN1Cc1ccc(Cl)nc1", "note": "[Compound 5, 1-(2-chloro-5-pyridylmethyl)-2-cyanoiminoimidazolidine]", "values": [{"measurement": "efficacy (kill ratio) compared with comparison compounds", "setting": "[1]", "value": "considerably better efficacy"}, {"measurement": "efficacy (kill ratio) compared with comparison compounds", "setting": "[2]", "value": "considerably better efficacy"}, {"measurement": "efficacy (kill ratio) compared with comparison compounds", "setting": "[3]", "value": "considerably better efficacy"}, {"measurement": "efficacy (kill ratio) compared with comparison compounds", "setting": "[4]", "value": "considerably better efficacy"}]}
{"smiles": "Cc1cnc(CN2CCN/C2=N\\C#N)cn1", "note": "[Compound 54, 1-(2-methyl-5-pyrazinylmethyl)-2-cyanoiminoimidazolidine]", "values": [{"measurement": "efficacy (kill ratio) compared with comparison compounds", "setting": "[3]", "value": "considerably better efficacy"}]}
{"smiles": "N#C/N=C1\\SCCN1Cc1cnc(Cl)s1", "note": "[Compound 69]", "values": [{"measurement": "efficacy (kill ratio) compared with comparison compounds", "setting": "[3]", "value": "considerably better efficacy"}, {"measurement": "efficacy (kill ratio) compared with comparison compounds", "setting": "[4]", "value": "considerably better efficacy"}]}
